Test results reported in article PMC12224939, “Trypstatin as a Novel TMPRSS2 Inhibitor with Broad‐Spectrum Efficacy against Corona and Influenza Viruses” (Advanced Science, 2025).
“Also recorded” adds a separate entry of the source. Bridge positions count the residues as written; N and C are the ends.

How the values were obtained:
recombinant furin = molecular target: T1, recombinant furin (Homo sapiens, UniProt P09958); assay: Furin activity assay; type: biochemical
T1 construct: purchased Bachem (so in the source) 1503-SE-010
T1 sequence (P09958 108-794): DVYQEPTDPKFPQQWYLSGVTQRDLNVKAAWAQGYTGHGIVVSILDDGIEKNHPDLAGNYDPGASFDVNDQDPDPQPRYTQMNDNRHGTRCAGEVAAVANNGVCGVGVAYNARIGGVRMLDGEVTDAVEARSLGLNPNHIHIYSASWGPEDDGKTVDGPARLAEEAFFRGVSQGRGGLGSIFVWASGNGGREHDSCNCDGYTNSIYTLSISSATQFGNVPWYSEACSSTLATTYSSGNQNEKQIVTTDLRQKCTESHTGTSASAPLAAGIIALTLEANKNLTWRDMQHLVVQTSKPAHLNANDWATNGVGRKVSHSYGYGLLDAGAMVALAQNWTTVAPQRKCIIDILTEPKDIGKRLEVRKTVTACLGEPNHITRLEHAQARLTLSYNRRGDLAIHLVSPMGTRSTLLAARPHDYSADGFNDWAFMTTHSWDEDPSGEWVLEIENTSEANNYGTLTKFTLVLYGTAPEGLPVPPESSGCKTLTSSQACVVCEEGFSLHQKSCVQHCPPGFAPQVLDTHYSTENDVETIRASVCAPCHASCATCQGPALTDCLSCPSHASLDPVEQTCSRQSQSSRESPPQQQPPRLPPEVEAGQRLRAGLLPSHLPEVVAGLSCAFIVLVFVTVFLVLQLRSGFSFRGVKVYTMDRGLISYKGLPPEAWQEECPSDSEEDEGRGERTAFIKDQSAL
Procedure: Furin activity assay was conducted as described previously with slight changes.^[ [42] ^] In brief, Trypstatin was mixed with recombinant furin (Bachem #1503‐SE‐010, final concentration 1.0 ng µL^−1) in assay buffer (25 mM Tris, 1 mM CaCl2, pH 9) for 30 min at room temperature before the addition of […] ‐L‐pyroglutamyl‐modified RTKR‐ AMC substrate (Bachem #4018149) per well with a final concentration of 1 mM CaCl2 in water. Fluorescence intensity was recorded in 2 min intervals for 5 h at an excitation wavelength of 355 nm and emission wavelength of 460 nm at 37 °C in a Cytation 3 (BioTek) microplate reader. The area under the curve values were normalized to the furin control. Hexa‐D‐arginine served as inhibitor control.

[1] = test system: lentiviral pseudoparticles harboring VSV-G glycoprotein; type: cell-based
SARS-CoV-2 Delta = conditions: hamster, in vivo
recombinant ACE2 = molecular target: T2, recombinant ACE2 (Homo sapiens, UniProt Q9BYF1); assay: Recombinant ACE2 assay; type: biochemical
T2 construct: purchased R&D 933-ZN
T2 sequence (Q9BYF1 18-805): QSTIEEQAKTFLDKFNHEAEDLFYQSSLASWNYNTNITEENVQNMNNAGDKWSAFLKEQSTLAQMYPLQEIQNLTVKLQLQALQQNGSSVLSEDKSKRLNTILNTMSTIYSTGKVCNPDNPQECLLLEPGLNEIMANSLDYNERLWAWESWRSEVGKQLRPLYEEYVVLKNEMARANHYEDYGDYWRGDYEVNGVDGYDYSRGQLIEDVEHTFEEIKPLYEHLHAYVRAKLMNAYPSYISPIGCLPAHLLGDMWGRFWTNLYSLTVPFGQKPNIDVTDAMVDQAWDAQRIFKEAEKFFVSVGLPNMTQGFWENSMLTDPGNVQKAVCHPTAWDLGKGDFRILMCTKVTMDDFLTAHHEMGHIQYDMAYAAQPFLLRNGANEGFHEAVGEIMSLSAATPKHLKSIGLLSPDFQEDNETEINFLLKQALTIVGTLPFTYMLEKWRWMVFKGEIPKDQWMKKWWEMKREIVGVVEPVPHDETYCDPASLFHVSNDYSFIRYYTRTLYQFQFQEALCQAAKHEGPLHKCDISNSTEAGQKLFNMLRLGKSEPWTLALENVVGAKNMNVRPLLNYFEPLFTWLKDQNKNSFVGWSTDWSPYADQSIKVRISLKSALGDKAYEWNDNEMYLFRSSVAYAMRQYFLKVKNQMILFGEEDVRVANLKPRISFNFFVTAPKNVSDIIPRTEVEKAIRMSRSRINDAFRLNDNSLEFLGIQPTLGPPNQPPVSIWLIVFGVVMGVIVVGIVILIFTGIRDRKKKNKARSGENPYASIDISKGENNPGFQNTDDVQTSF
Procedure: To determine the activity of Trypstatin against ACE2, 25 µL of 0,4 µg mL^−1 recombinant ACE2 (R&D #933‐ZN) in assay buffer (75 mM Tris, 1 M NaCl, pH 7.5) was mixed with 25 µL of inhibitor for 15 min at 37 °C before addition of 50 µL of 40 µM of MCA‐YVADAPK(Dnp)‐OH substrate (R&D #ES007) and incubation for 5 min at 37 °C. Fluorescence intensity was measured after 5 min at an excitation wavelength of 320 nm and emission wavelength of 405 nm in a SynergyTM H1 microplate reader (BioTek) with Gen5 3.04 software.

[2] = molecular target: T3, cathepsin B from human placenta (Homo sapiens, UniProt P07858); assay: Cathepsin B activity assay; type: biochemical; conditions: enzyme from human placenta
T3 construct: cathepsin B from human placenta (Sigma Aldrich #C0150); purchased Sigma Aldrich C0150; host or cells: human placenta (tissue-derived)
Procedure: (§1) Cathepsin enzyme activity assays were performed as described before.^[ [42] ^] In brief, serially diluted compounds were mixed with recombinant cathepsin L (R&D #952‐Cy) in assay buffer (50 mM MES, 5 mM DTT, 1 mM EDTA, 0.005% Brij35, pH 6) or with cathepsin B from human placenta (Sigma Aldrich #C0150) in assay buffer (105.6 mM KH2PO4, 14.4 mM Na2HPO4, 1.2 mM EDTA, 0.07% Brij35, 2.4 mM L‐cysteine, pH 6). The protease‐inhibitor mixtures were incubated for 10 min at RT before the addition of the respective fluorogenic reporter substrate Z‐Leu‐Arg‐AMC (for cathepsin L; Bachem #4034611) or Z‐Arg‐Arg‐AMC (for cathepsin B; Bachem #4004789). The final concentrations were as follows: Cathepsin L 0.01 µg mL^−1, cathepsin B 1 µg mL^−1, Z‐Leu‐Arg‐AMC 40 µM or Z‐Arg‐Arg‐AMC 30 µM. Fluorescence intensity was recorded at an excitation wavelength of 380 nm and emission wavelength of 460 nm after 25 min at 37 °C (cathepsin L) or after 60 min at 40 °C (cathepsin B) in a Synergy H1 microplate reader (BioTek) with Gen 5 3.04 software.

Caco-2 cells = assay: Cytotoxicity assay (CellTiter-Glo); type: cell-based, human; conditions: 48 h, ATP levels, tested concentrations
Procedure: To assess the cytotoxicity of the inhibitors used, 10 000 Caco2 cells were seeded in a 96‐well flat bottom plate. The next day, the medium was replaced and cells were treated with serial dilutions of compounds or PBS as a control. After 48 h, cell viability was assessed by measuring ATP levels in cell lysates with a commercially available kit (CellTiter‐Glo, Promega) in an Orion II microplate reader with Simplicity 4.2 software.

[3] = test system: IL-1ß, IL-6, CCL5, CXCL10, IRF1 expression in HAECs; type: cell-based, human
[4] = molecular target: T4, TMPRSS2 Syrian gold hamster (Mesocricetus auratus, UniProt A0A1U8C7C8); assay: Cellular hamster TMPRSS2 activity assay in transfected HEK293T cells; type: cell-based; conditions: compared with human TMPRSS2
T4 construct: encoding the respective transmembrane serine protease per well; host or cells: HEK293T
T4 sequence (A0A1U8C7C8 1-492): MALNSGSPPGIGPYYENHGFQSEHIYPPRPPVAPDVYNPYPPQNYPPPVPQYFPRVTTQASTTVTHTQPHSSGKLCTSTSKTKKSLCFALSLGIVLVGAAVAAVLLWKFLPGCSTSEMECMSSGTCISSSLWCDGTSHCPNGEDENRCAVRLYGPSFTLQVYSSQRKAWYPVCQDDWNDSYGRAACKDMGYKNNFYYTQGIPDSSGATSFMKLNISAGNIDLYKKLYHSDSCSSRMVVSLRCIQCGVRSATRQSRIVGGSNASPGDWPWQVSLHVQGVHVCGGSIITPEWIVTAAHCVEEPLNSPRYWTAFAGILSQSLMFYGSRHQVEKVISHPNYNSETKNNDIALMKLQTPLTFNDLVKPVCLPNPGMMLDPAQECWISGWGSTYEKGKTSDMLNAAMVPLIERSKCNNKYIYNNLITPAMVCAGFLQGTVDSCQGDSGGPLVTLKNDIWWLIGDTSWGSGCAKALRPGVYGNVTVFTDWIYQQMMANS
Procedure: Twenty thousand HEK293T cells were seeded in a 96‐well flat bottom plate. The next day, cells were transfected with 100 ng of an expression plasmid (Backbone: Twist Bioscience, EF1alpha mammalian expression vector) encoding the respective transmembrane serine protease per well using LT1 transfection reagent (TMPRSS2 human NCBI RefSeq: NP_005647.3; TMPRSS2 Syrian gold hamster NCBI RefSeq: XP_012971683.1; TMPRSS11D NCBI RefSeq: NP_004253.1; TMPRSS13 NCBI RefSeq: NP_001070731.1). In short, plasmid DNA was mixed in a 1:3 ratio with LT1 in a serum‐free medium and incubated for 20 min before the mixture was applied dropwise onto the cells. Sixteen hours post‐transfection, the medium was replaced by a serum‐free medium, and cells were treated with serial dilution of compounds in PBS. After 15 min of incubation at 37 °C, 100 µM of respective protease‐specific substrate (TMPRSS2: Boc‐QAR‐AMC, Bachem # 4017019; TMPRSS11D: Boc‐FSR‐AMC, Bachem # 4012340; TMPRSS13: Pyr‐RTKR‐AMC, Bachem #4018149) was added and incubated for 2 h at 37 °C. Fluorescence intensity was recorded at an excitation wavelength of 380 nm and emission wavelength of 460 nm in a Synergy H1 microplate reader (BioTek) with Gen 5 3.04 software. Values were background corrected for non‐transfected HEK293T‐cells. […]

TMPRSS14 (Matriptase) = molecular target: T5, TMPRSS14 (Matriptase) (Homo sapiens, UniProt Q9Y5Y6); assay: Recombinant TMPRSS14 activity assay; type: biochemical; conditions: recombinant enzyme
T5 construct: purchased 3946
T5 sequence (Q9Y5Y6 whole entry): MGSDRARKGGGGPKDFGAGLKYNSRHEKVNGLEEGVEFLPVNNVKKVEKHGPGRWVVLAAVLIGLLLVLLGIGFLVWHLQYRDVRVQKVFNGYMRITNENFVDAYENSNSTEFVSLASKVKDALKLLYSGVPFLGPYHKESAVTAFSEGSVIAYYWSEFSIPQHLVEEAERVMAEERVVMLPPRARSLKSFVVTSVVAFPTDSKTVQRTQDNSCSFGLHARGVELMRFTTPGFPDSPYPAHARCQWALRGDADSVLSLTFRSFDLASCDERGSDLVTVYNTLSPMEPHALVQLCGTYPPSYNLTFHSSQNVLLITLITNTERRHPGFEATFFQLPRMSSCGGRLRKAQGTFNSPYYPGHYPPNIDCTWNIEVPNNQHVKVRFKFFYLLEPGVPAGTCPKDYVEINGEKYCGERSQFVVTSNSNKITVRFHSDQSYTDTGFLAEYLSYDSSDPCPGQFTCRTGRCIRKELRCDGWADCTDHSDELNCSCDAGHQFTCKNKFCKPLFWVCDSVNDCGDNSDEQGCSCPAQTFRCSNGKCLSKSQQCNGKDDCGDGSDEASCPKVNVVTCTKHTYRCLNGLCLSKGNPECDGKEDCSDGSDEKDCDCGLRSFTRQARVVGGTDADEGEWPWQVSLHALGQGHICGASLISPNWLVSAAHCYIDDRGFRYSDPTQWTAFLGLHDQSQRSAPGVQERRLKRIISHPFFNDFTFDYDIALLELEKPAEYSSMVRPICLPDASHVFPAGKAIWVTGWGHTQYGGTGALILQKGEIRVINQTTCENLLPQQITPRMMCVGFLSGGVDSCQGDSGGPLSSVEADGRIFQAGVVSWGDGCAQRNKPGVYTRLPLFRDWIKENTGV
Procedure: In the next step, 50 µL of 20 µM BOC‐Gln‐Ala‐Arg‐AMC protease substrate (Bachem #4017019) in the case of TMPRSS2 and TMPRSS14 or 50 µL of 150 µM BOC‐Gln‐Arg‐Arg‐AMC (PeptaNova) in the case of TMPRSS1 was added and incubated for 2 h for TMPRSS2, or 5 mins in the case of TMPRSS1/14 at 37 °C. Fluorescence intensity was measured after 2 h at an excitation wavelength of 380 nm and emission wavelength of 460 nm in a SynergyTM H1 microplate reader (BioTek) with Gen5 3.04 software. […] Assays were performed in a total volume of 100 µL in quadruplicate wells of a 96 Nunc well plate (Thermo Scientific #10174221) with a final TMPRSS2 concentration of 20 nM. Initial velocities were measured in 50 s intervals for 15 min with excitation of 360 nm and emission of 460 nm in a SynergyTM H1 microplate reader. K m and V max were calculated from Michaelis–Menten plots using GraphPadPrism. The inhibitory constant K i was calculated from the IC50 values according to the Cheng–Prusoff equation (K i = IC50/(1 + [S]/K m)) for competitive reversible inhibitors.^[ [91] ^]

cathepsin L = molecular target: T6, cathepsin L (Homo sapiens, UniProt P07711); assay: Cathepsin L activity assay; type: biochemical; conditions: recombinant enzyme
T6 construct: purchased R&D 952-Cy
T6 sequence (P07711 114-333): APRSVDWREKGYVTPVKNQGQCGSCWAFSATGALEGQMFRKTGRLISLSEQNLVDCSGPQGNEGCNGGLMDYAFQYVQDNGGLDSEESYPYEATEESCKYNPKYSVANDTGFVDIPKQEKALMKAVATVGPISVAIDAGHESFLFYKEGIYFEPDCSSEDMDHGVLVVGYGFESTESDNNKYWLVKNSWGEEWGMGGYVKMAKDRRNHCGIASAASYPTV
Procedure: as §1

SARS-CoV-2 BA.5 = type: cell-based

VAACNLPIVRGPCRAFIQLWAFDAVKGKCVLFPYGGCQGNGNKFYSEKECREYCGVPGDGD (disulfide 4-54, 13-37, 29-50 (inferred)) [Trypstatin]
inhibition of Furin (recombinant furin): did not inhibit; also recorded: does not inhibit | effect on VSV-G-mediated pseudoparticle entry [1]: without affecting VSV‐G‐driven entry | clinical symptoms (piloerection, weakness, fatigue, abnormal posture) (SARS-CoV-2 Delta): almost entirely absent | infectious virus particles in BAL (TCID50) (SARS-CoV-2 Delta): significantly reduced | side effects in hamsters (SARS-CoV-2 Delta): without observed side effects | viral loads in BAL (qPCR) (SARS-CoV-2 Delta): significantly reduced | inhibition of ACE2 (recombinant ACE2): did not inhibit; also recorded: does not inhibit | inhibition of Cathepsin B [2]: did not inhibit | cytotoxicity / cell viability (Caco-2 cells): does not influence cell viability | effect on expression of inflammatory genes [3]: failed to reach significance; also recorded: does not have a significant anti-inflammatory effect | inhibition of hamster TMPRSS2 [4]: IC50 values similar to those for human TMPRSS2; also recorded: blocks hamster and human TMPRSS2 activity with similar efficacies | inhibition of TMPRSS14 (TMPRSS14 (Matriptase)): no effect | inhibition of Cathepsin L (cathepsin L): did not inhibit | reduction of SARS-CoV-2 BA.5 replication over 72 h (SARS-CoV-2 BA.5): up to four orders of magnitude
